Read-outs that look alike come from different tables or passages of the source.
Target: T1, TYK2 kinase domain (Homo sapiens, UniProt P29597)
T1 construct: made in house; host or cells: SF9 insect cells (recombinant baculovirus)
T1 sequence (P29597 873-1187): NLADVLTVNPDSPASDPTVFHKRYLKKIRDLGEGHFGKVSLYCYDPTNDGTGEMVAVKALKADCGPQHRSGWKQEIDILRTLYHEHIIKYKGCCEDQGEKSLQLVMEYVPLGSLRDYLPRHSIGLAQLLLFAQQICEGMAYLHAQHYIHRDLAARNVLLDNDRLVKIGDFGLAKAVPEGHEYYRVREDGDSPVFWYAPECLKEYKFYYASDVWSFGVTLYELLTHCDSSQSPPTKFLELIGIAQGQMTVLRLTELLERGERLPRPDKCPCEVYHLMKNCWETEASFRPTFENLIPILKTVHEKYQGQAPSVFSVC
Experiment: TYK2 inhibition assay (Caliper LabChip, isolated kinase domain)
Assay type: biochemical
Excerpt: The catalytically active kinase domain of human JAK1, JAK2, JAK3 or TYK2 was purified from extracts of SF9 insect cells infected with a recombinant baculovirus expression vector encoding the human JAK1, JAK2, JAK3 or TYK2 kinase domains (JAK1 amino acid residues N852-D1154 according to the numbering of GenBank sequence accession number P23458, JAK2 amino acid residues D812-G1132 according to the numbering of GenBank sequence accession number NP_004963.1; JAK3 amino acid residues S783-S1124 according to the numbering of GenBank sequence accession number P52333, and TYK2 amino acid residues N873-C1187 according to the numbering of GenBank sequence accession number P29597). The activity of the JAK1, JAK2, JAK3 or TYK2 kinase domains can be measured by a number of direct and indirect methods, including quantification of phosphorylation of peptide substrates derived from the human JAK3 protein (Saltzman et al., Biochem. Biophys. Res. Commun. 246:627-633 (2004)). The activity of the JAK1, JAK2, JAK3 or TYK2 kinase domains was measured in vitro by monitoring phosphorylation of JAK3 derived peptides using the Caliper LabChip technology (see Examples).
The activity of the isolated JAK1, JAK2 or TYK2 kinase domain was measured by monitoring phosphorylation of a peptide derived from JAK3 (SEQ ID NO:1 […] fluorescently labeled on the N-terminus with 5-carboxyfluorescein using the Caliper LabChip technology (Caliper Life Sciences, Hopkinton, Mass.). […] Reactions were incubated at 22° C. in 384-well polypropylene microtiter plates for 30 minutes and then stopped by addition of 25 uL of an EDTA containing solution (100 mM Hepes pH 7.2, 0.015% Brij-35, 150 mM EDTA), resulting in a final EDTA concentration of 50 mM. After termination of the kinase reaction, the proportion of phosphorylated product was determined as a fraction of total peptide substrate using the Caliper LabChip 3000 according to the manufacturer's specifications. Ki values were then determined using the Morrison tight binding model. Morrison, J. F., Biochim. Biophys. Acta. 185:269-296 (1969); William, J. W. and Morrison, J. F., Meth. Enzymol., 63:437-467 (1979).

[1] = isolated TYK2 kinase domain, 25 uM ATP, values given as 'about', read-out: Ki values for TYK2 inhibition

Ki [1] [µM]	Compound	further results
~0.38	O=C(Nc1ccnc(Nc2nccs2)c1)c1c(Cl)cccc1Cl [Example 4, 2,6-dichloro-N-(2-(thiazol-2-ylamino)pyridin-4-yl)benzamide]	
~0.0005	Cc1cc(Nc2cc(NC(=O)c3c(Cl)cc(C#N)cc3Cl)ccn2)nc(N(CCO)CCO)n1 [Example 415, N-(2-(2-(bis(2-hydroxyethyl)amino)-6-methylpyrimidin-4-ylamino)pyridin-4-yl)-2,6-dichloro-4-cyanobenzamide]	
~0.005	O=C(Nc1ccnc(NC(=O)C2CC2)c1)c1c(Cl)cc(CO)cc1Cl [Example 178, 2,6-dichloro-N-(2-(cyclopropanecarboxamido)-pyridin-4-yl)-4-(hydroxymethyl)benzamide]	
~0.0006	CCc1cc(Nc2cc(NC(=O)c3c(Cl)cccc3Cl)ccn2)nc(N(CCO)CCO)n1 [Example 579, N-(2-(2-(bis(2-hydroxyethyl)amino)-6-ethylpyrimidin-4-ylamino)pyridin-4-yl)-2,6-dichlorobenzamide]	
	O=C(Nc1ccnc(NC(=O)[C@H]2C[C@@H]2c2nnn[nH]2)c1)c1c(Cl)cccc1Cl (relative stereo) [Example 320, N-(2-(trans-2-(1H-tetrazol-5-yl)cyclopropanecarboxamido)pyridin-4-yl)-2,6-dichlorobenzamide]	Ki: ~0.052 µM
~0.008	O=C(Nc1ccnc(NC(=O)[C@H]2C[C@H]2F)c1)c1c(Cl)cc(CO)cc1Cl (relative stereo) [Example 315, 2,6-dichloro-N-(2-(cis-2-fluorocyclopropanecarboxamido)pyridin-4-yl)-4-(hydroxymethyl)benzamide]	
~0.024	O=C(Nc1ccnc(NC(=O)C2CC2)c1F)c1c(Cl)cccc1Cl (single isomer, unassigned) [Example 263, 2,6-dichloro-N-(3-fluoro-2-cyclopropanecarboxamidopyridin-4-yl)benzamide]	
~0.36	Cc1ccc(Cl)c(C(=O)Nc2ccncc2)c1F [Example 17, 6-chloro-2-fluoro-3-methyl-N-(pyridin-4-yl)benzamide]	
~0.0033	CNc1nc(Nc2cc(NC(=O)c3c(Cl)cccc3Cl)ccn2)cc(C(C)C)n1 [Example 551, 2,6-dichloro-N-(2-(6-isopropyl-2-(methylamino)pyrimidin-4-ylamino)pyridin-4-yl)benzamide]	
~0.19	O=C(Nc1ccncc1F)c1c(Cl)cccc1Cl [Example 272, 2,6-dichloro-N-(3-fluoropyridin-4-yl)benzamide]	
~0.45	Cc1cc(Nc2nccc(NC(=O)c3c(Cl)cc(C#N)cc3Cl)c2[N+](=O)[O-])nc(C)n1 [Example 238, 2,6-dichloro-4-cyano-N-(2-(2,6-dimethylpyrimidin-4-ylamino)-3-nitropyridin-4-yl)benzamide]	
~0.0018	CCc1cc(Nc2cc(NC(=O)c3c(Cl)cccc3Cl)ccn2)nc(N2CCNCC2)n1 [Example 534, 2,6-dichloro-N-(2-(6-ethyl-2-(piperazin-1-yl)pyrimidin-4-ylamino)pyridin-4-yl)benzamide]	
~0.01	O=C(Nc1cc(NC(=O)C2CC2)ncc1F)c1c(Cl)cccc1Cl (single isomer, unassigned) [Example 264, 2,6-dichloro-N-(5-fluoro-2-cyclopropanecarboxamidopyridin-4-yl)benzamide]	
~0.99	O=C(Nc1ccnc(NC2CC2)n1)c1c(Cl)cccc1Cl [Example 156, 2,6-dichloro-N-(2-(cyclopropylamino)-pyrimidin-4-yl)benzamide]	
~0.0006	Cc1cc(Nc2cc(NC(=O)c3c(Cl)cc(CO)cc3Cl)ccn2)nc(NCCO)n1 [Example 416, 2,6-dichloro-N-(2-(2-(2-hydroxyethylamino)-6-methylpyrimidin-4-ylamino)pyridin-4-yl)-4-(hydroxymethyl)-benzamide]	
~0.08	CCc1cc(Nc2cc(NC(=O)c3c(Cl)cccc3Cl)ccn2)nc(N2CCC(F)(F)CC2)n1 [Example 572, 2,6-dichloro-N-(2-(2-(4,4-difluoropiperidin-1-yl)-6-ethylpyrimidin-4-ylamino)pyridin-4-yl)benzamide]	
~0.14	NC[C@H]1C[C@H]1C(=O)Nc1cc(NC(=O)c2c(F)cccc2Cl)ccn1 (relative stereo) [Example 608, cis-N-(2-(2-(aminomethyl)cyclopropanecarboxamido)pyridin-4-yl)-2-chloro-6-fluorobenzamide]	
~0.0036	Cc1cc(Nc2cc(NC(=O)c3c(Cl)cc(CNCC4CC4)cc3Cl)ccn2)nc(N2CCOCC2)n1 [Example 406, 2,6-dichloro-4-((cyclopropylmethylamino)-methyl)-N-(2-(6-methyl-2-morpholinopyrimidin-4-ylamino)pyridin-4-yl)benzamide]	
~0.0015	Cc1cc(Nc2cc(NC(=O)c3c(Cl)cccc3Cl)ccn2)nc(N)n1 [Example 495, N-(2-(2-amino-6-methylpyrimidin-4-ylamino)pyridin-4-yl)-2,6-dichlorobenzamide]	
~0.81	O=C(Nc1ccncc1)c1ccccc1Br [Example 271, 2-bromo-N-(pyridine-4-yl)benzamide]	
~0.72	O=C(Nc1ccncn1)c1c(Cl)cccc1Cl [Example 3, 2,6-dichloro-N-(pyrimidin-4-yl)benzamide]	
~0.65	O=C(Nc1ccncc1)c1c(Cl)cc(-c2cc[nH]n2)cc1Cl [Example 11, 2,6-dichloro-4-(1H-pyrazol-3-yl)-N-(pyridin-4-yl)benzamide]	
~0.22	O=C(Nc1ccncc1)c1c(Cl)cc(CO)cc1Cl [Example 76, 2,6-dichloro-4-(hydroxymethyl)-N-(pyridin-4-yl)benzamide]	
~0.093	N#Cc1cc(Cl)c(C(=O)Nc2ccnc(N)c2)c(Cl)c1 [Example 281, N-(2-aminopyridin-4-yl)-2,6-dichloro-4-cyanobenzamide]	
> 3.5	O=C(Nc1ccc(NC(=O)C2CC2)nc1)c1c(Cl)cccc1Cl [2,6-dichloro-N-(6-(cyclopropanecarboxamido)-pyridin-3-yl)benzamide, reference compound]	inhibition at 10 µM (measured at 10 μM concentration of compound): ~5.7%
~0.027	CN(C)C(=O)c1cc(Cl)c(C(=O)Nc2ccnc(NC(=O)C3CC3)c2)c(Cl)c1 [Example 260, 2,6-dichloro-N^1-(2-(cyclopropanecarboxamido)pyridin-4-yl)-N^4,N^4-dimethylterephthalamide]	
~0.85	Nc1cc(NC(=O)c2c(Cl)cccc2Cl)ccn1 [Example 2, N-(2-aminopyridin-4-yl)-2,6-dichlorobenzamide]	
~0.57	COCCOc1ccc(Nc2cc(NC(=O)c3c(Cl)cccc3Cl)ccn2)cc1C(F)(F)F [Example 115, 2,6-dichloro-N-(2-(4-(2-methoxyethoxy)-3-(trifluoromethyl)phenyl-amino)pyridin-4-yl)benzamide]	
~0.0035	Cc1cc(Nc2cc(NC(=O)c3c(Cl)cc(Cl)cc3Cl)ccn2)nc(N2CCOCC2)n1 [Example 380, 2,4,6-trichloro-N-(2-(6-methyl-2-morpholinopyrimidin-4-ylamino)pyridin-4-yl)benzamide]	
	N#Cc1cc(Cl)c(C(=O)Nc2ccnc(NC(=O)C3CC3)c2)c(Cl)c1 [Example 256, 2,6-dichloro-4-cyano-N-(2-(cyclopropanecarboxamido)pyridin-4-yl)benzamide]	Ki: ~0.002 µM

Compound	Ki [1] [µM]	further results
O=C(Nc1cc(NC(=O)c2c(Cl)cccc2Cl)ccn1)Oc1ccccc1 [Example 350, phenyl 4-(2,6-dichlorobenzamido)pyridin-2-ylcarbamate]	~0.062	
